Assay results: publication PMC9994261 (Cell, 2023)
Converted amounts (≈) assume the structure as drawn. Where two headings read alike, the source gives them in different places.

What was measured:
[1] = test system: Mtb ribosome; type: biochemical, Mycobacterium tuberculosis; settings: read-out: Inhibition of Mtb translation (IC50 μM)
[2] = test system: GFP-expressing Mtb H37Rv in RAW264.7 macrophages; experiment: Intramacrophage assay (MIC for Mtb in macrophages); type: cell-based, Mycobacterium tuberculosis; settings: Mycobacterium tuberculosis, H37RV
[3] = type: in vitro ADME, human
Protocol: The metabolic stability of test compounds was determined as described.[57]^,[58] Incubation and experimental conditions with human hepatic microsomal fractions (purchased from BD Gentest as a pooled batch from 6 donors) were as follows: microsomal proteins, 1 mg/mL; bovine serum albumin, 1 mg/mL; substrate, 5 μM; incubation duration, 20 min; cytochrome P-450 monooxygenases (CYPs) and flavin containing monooxygenases (FMOs) cofactor, 1 mM NADPH. Enzyme activity was stopped with 1 volume of acetonitrile. […] For each test compound and for each microsomal preparation, three incubations were prepared: absolute reference in buffer (without enzyme material, i.e., microsomes); incubation without NADPH cofactor (with microsomal fractions); and incubation with NADPH (with microsomal fractions). For most compounds, biotransformation, as observed in hepatic microsomal fractions in the presence of the NADPH cofactor, consists of oxidative reactions catalyzed by either CYPs or FMOs. In these conditions, the percentage of total metabolism, which corresponds to oxidative metabolism, was determined as follows: [% total metabolism] ≈ [% oxidative metabolism] = [unchanged compound (UC) peak area − NADPH UC peak area + NADPH] × 100%, where NADPH corresponds to the enzyme cofactor for oxidation reactions catalyzed by either CYP or FMO.

[4] = type: in vitro ADME
[5] = type: in vitro ADME; remark: listed apart in the source
[6] = type: in vitro ADME; remark: listed apart in the source
[7] = physchem; type: physicochemical
[8] = in vitro; type: in vitro ADME; settings: human, Caco-2; read-out: Permeability in Caco2 cells (Papp)
[9] = test system: M. bovis BCG Pasteur; experiment: microbe, parasite or virus in culture; type: cell-based, Mycobacterium bovis
[10] = test system: Mtb H37Rv LuxAB; experiment: microbe, parasite or virus in culture; type: cell-based; settings: Mycobacterium tuberculosis
[11] = test system: Mtb H37Rv LuxAB; experiment: microbe, parasite or virus in culture; type: cell-based; settings: Mycobacterium tuberculosis; remark: listed apart in the source
[12] = test system: Mtb H37Rv; type: cell-based, Mycobacterium tuberculosis; settings: 7-day treatment
[13] = test system: RAW264.7 cells; type: in vitro ADME, murine; settings: RAW macrophages, 10 μM
Protocol: RAW264.7 cells were allowed to adhere in 96 wells plates for 4 hours before compounds were added at 10 μM. Intracellular concentrations were measured by LC-MS/MS after cellular lysis. For each point, up to 4 hours, the Intra/Extra cellular ratio was calculated. Points are the mean ± SD of four tests. Clarithromycin and Azithromycin were used as references.

[14] = test system: Mtb H37Rv; experiment: Mouse model of acute TB; type: in vivo; settings: 4 weeks
[15] = test system: Mtb Erdman; experiment: Mouse model of chronic TB; type: in vivo; settings: 300 mg/kg oral once daily
[16] = test system: Mtb H37Rv; experiment: MIC80 after overnight pre-incubation of Mtb with subinhibitory macrolide; type: cell-based; settings: Mycobacterium tuberculosis, read-out: MIC80
[17] = pH 2, 50% acetonitrile/water
[18] = in vivo; settings: male, Swiss, mouse, po; for AUC: oral 30 mg/kg
[19] = physchem; settings: pH 7.4
[20] = mouse po 10 mg/kg, PEG200/Tween80/Citrate Buffer 100mM pH4 (70/5/25)
[21] = mouse po 100 mg/kg, Lipidic formulation CremophorRH40/Capryol90/Mygliol812N (10/20/70) diluted in ½ water
[22] = mouse po 100 mg/kg, PEG200/Tween80/Citrate Buffer 100mM pH4 (70/5/25)
[23] = mouse po 300 mg/kg, PEG200/Tween80/Citrate Buffer 100mM pH4 (70/5/25)

CON=C1CC(C)OC(OC2C(C)CC(C)(OC(=O)NC(C)(C)CNS(=O)(=O)c3ccccc3)C(=O)C(C)C(OC(=O)CC(C)C)C(C)C(C(C)COC3OC(C)C(O)C(OC)C3OC)OC(=O)C(C)C(OC3CC(C)N(C)CC(C)O3)C2C)C1O (stereo not drawn) [SEQ-9]
IC50 [1]: 0.075 µM | MIC ([2]; read-out: MIC (μM) for Mtb in macrophages): 0.15 µM (≈ 0.187 µg/mL) | MIC ([2]; read-out: MIC for Mtb tuberculosis in macrophages): 0.11 µM (≈ 0.137 µg/mL) | Metabolic stability in human liver microsomes (% metabolized compound after 20 min) ([3]; 20 min incubation): 10% | Metabolic stability in human liver microsomes (% metabolized compound after 20 min), (K) ([3]; in presence of ketoconazole CYP3A inhibitor (K)): 0(K) % | Metabolic stability in human liver microsomes (% metabolized compound after 20 min), (Q) ([3]; in presence of quinidine CYP2D6 inhibitor (Q)): /10(Q) % | Metabolic stability in mouse liver microsomes (% metabolized compound after 20 min) [4]: 8% | Metabolic stability in rat liver microsomes (% metabolized compound after 20 min) [5]: 9% | Metabolic degradation/clearance from human liver microsomes [6]: 0.03 mL/h/10^6 hepatocytes | solubility ([7]; MCT pH 7.4, read-out: Solubility: MCT@pH 7.4): 530 µg/mL (≈ 426 µM) | solubility ([7]; aqueous buffer, PBS pH 7.4, read-out: Solubility: PBS@pH 7.4): 51 µg/mL (≈ 41 µM) | Papp [8]: 1.5 ×10⁻⁶ cm/s | Growth inhibition (MIC80) [9]: 0.56 µM | MIC80 ([9]; Mycobacterium tuberculosis variant bovis BCG, BCG, read-out: Growth inhibition (MIC80)): 0.32 µM (≈ 0.398 µg/mL) | MIC ([9]; Mycobacterium tuberculosis variant bovis BCG, BCG, read-out: MIC in Pasteur M. bovis BCG): 0.32 µM (≈ 0.398 µg/mL) | MIC ([10]; read-out: MIC (μM) for Mtb in liquid culture + 25% human serum): 1.2 µM | MIC ([10]; read-out: MIC (μM) for Mtb in liquid culture + 25% mouse serum): 2.1 µM | MIC ([11]; read-out: MIC for Mtb under anaerobic conditions (LORA)): 0.6 µM (≈ 0.746 µg/mL) | MBC ([11]; read-out: Minimal bactericidal concentration (MBC) for Mtb under anaerobic conditions (LORA)): 6.3 µM (≈ 7.83 µg/mL) | log CFU reduction (in vitro bactericidal activity) ([12]; 30 μM): 1.5 log CFU | log CFU reduction (in vitro bactericidal activity) ([12]; 60 μM): 2.5 log CFU | Intra-macrophage ratio (intra versus extracellular concentration) [13]: ~60 fold | Survival of infected mice ([14]; 37.5 to 300 mg/kg oral, 5 days per week, untreated controls died within 4 weeks): survived at all doses administered | Minimum effective dose (MED), complete prevention of bacterial growth ([14]; oral, methylcellulose-Tween formulation): 300 mg/kg | log CFU reduction compared with pre-treatment CFU [15]: 1.7 log CFU | MIC80 ([16]; Without induction): 1 µM (≈ 1.24 µg/mL) | MIC80 ([16]; overnight pre-incubation with SEQ-9 0.125µg/ml): 1 µM (≈ 1.24 µg/mL) | MIC80 ([16]; overnight pre-incubation with SEQ-9 0.25µg/ml): 1 µM (≈ 1.24 µg/mL) | MIC80 ([16]; overnight pre-incubation with clarithromycin 0.125µg/ml): 1 µM (≈ 1.24 µg/mL) | MIC80 ([16]; overnight pre-incubation with clarithromycin 0.25µg/ml): 1 µM (≈ 1.24 µg/mL) | Chemical stability: t/12@pH 2 [17]: 48 h | Lung AUC0-24 [20]: 7800 ng·h/mL | Lung Cmax [20]: 790 ng/mL | Lung AUC0-24 [21]: 440000 ng·h/mL | Lung Cmax [21]: 31900 ng/mL | Lung AUC0-24 [22]: 190000 ng·h/mL | Lung Cmax [22]: 32900 ng/mL | Lung AUC0-24 [23]: 840000 ng·h/mL | Lung Cmax [23]: 252000 ng/mL | Higher plasma AUC compared with SEQ-372 (same oral dose of 30 mg/kg in mouse): 6 fold | bioavailability [18]: 23% | AUC(0-t) ([18]; 10 mg/kg, pH 4): 1100 ng·h/mL | Cmax ([18]; 10 mg/kg, pH 4): 140 ng/mL | half-life ([18]; 10 mg/kg, pH 4, Lung t1/2, mouse po 10 mg/kg, PEG200/Tween80/Citrate Buffer 100mM pH4 (70/5/25)): 4.5 h | half-life ([18]; 10 mg/kg, pH 4, Plasma t1/2, mouse po 10 mg/kg, PEG200/Tween80/Citrate Buffer 100mM pH4 (70/5/25)): 3 h | Kp ([18]; 30 mg/kg): 19 | AUC ([18]; 30 mg/kg, AUC in lung @30 mg/kg, lung): 120000 ng·h/mL | AUC ([18]; 30 mg/kg, AUC in plasma @30 mg/kg, plasma): 6300 ng·h/mL | AUC(0-t) ([18]; 100 mg/kg): 22000 ng·h/mL | Cmax ([18]; 100 mg/kg): 2130 ng/mL | half-life ([18]; 100 mg/kg, Lung t1/2, mouse po 100 mg/kg, Lipidic formulation CremophorRH40/Capryol90/Mygliol812N (10/20/70) diluted in ½ water): 4.5 h | half-life ([18]; 100 mg/kg, Plasma t1/2, mouse po 100 mg/kg, Lipidic formulation CremophorRH40/Capryol90/Mygliol812N (10/20/70) diluted in ½ water): 4.2 h | AUC(0-t) ([18]; 100 mg/kg, pH 4): 11000 ng·h/mL | Cmax ([18]; 100 mg/kg, pH 4): 1390 ng/mL | half-life ([18]; 100 mg/kg, pH 4, Lung t1/2, mouse po 100 mg/kg, PEG200/Tween80/Citrate Buffer 100mM pH4 (70/5/25)): 6.5 h | half-life ([18]; 100 mg/kg, pH 4, Plasma t1/2, mouse po 100 mg/kg, PEG200/Tween80/Citrate Buffer 100mM pH4 (70/5/25)): 4.4 h | AUC(0-t) ([18]; 300 mg/kg, pH 4): 21000 ng·h/mL | Cmax ([18]; 300 mg/kg, pH 4): 3110 ng/mL | half-life ([18]; 300 mg/kg, pH 4, Lung t1/2, mouse po 300 mg/kg, PEG200/Tween80/Citrate Buffer 100mM pH4 (70/5/25)): 11 h | logD [19]: 3.4
